Read-outs that look alike come from different tables or passages of the source.
Columns and labels:
carragenin-induced edema [1] = experiment: carragenin-induced edema test (antinflammatory activity); type: in vivo, rats
Description: (§1) Preparations of the compound were administered orally and/or parenterally in a suspension in 0.59% carboxymethylcellulose in pH neutral physiological saline.
This effect was evaluated with an experimental model reproducing actue inflammation in rats: the carragenin-induced edema test was used, according to the method of C. A. Winter (G. Pharmac. Exp. Ther., 141, 369 (1963)). Table III reports the compounds tested, their concentrations, administration routes and relative percent edema inhibition.

[2] = tested on: platelet aggregation (ADP-induced); experiment: in vitro anti-platelet aggregant activity (Born's method, ADP); type: cell-based, rat; conditions: Rattus norvegicus, Platelet, ADP 7.08 μmol/l, read-out: Inhibition % (platelet aggregation)
Description: This activity was studied in vitro following Born's method (G. W. R. Born, Nature, 194, 937 (1962)) and inducing platelet aggregation with ADP. […] For the aggregation test, 0.2 ml of platelet rich plasma was mixed with a NaCl solution (0.9%) to which the test substance was added up to a final volume of 0.6 ml. Incubation was fixed at 3 minutes at 27° C. After aggregation was induced with ADP, the course of the aggregation was monitored continuously with an Elvi 840 Aggregometer (Elvi Logos--Milan). The antiaggregant effects were determined by the difference in the light transmission of the sample with respect to that of the ADP control. The test compound was compared with aspirin, which has known antiplatelet aggregant activity (H. J. Weiss et al., J. Clin. Inv., 47, 2169 (1968); Platelet Aggregation and Drugs, edited by L. Caprino and E. C. Rossi, page 235, Academic Press (London), 1974).
Table VI reports the inhibition of platelet aggregation with various doses of the compounds tested at a constant ADP concentration.

[3] = tested on: p-phenylquinone-induced writhing; experiment: p-phenylquinone-induced writhing test (analgesic activity); type: in vivo; conditions: an hour after administration
Description: as §1
The determination was made an hour after administration of the product. The inhibitory effect on abdominal contractions induced by phenyl-p-quinone was calculated as follows: [formula]
Table IV reports the doses, the administration routes and their effectiveness expressed as % protection.

in vivo [4] = conditions: rat
gastric mucosa = experiment: gastric tolerance (ulcerogenic activity); conditions: orally, four consecutive days; for Incidence % / 10: groups of 10 animals; for Mean number severity: severity scale 0-5
Description: This was studied by testing ulcerogenic activity in male Wistar rats weighing an average of 180 g, using groups of 10 animals each. Three doses of each substance were used, and one group of animals was treated with vehicle only, in a volume of 10 ml/g body weight. Each dose was administered orally for four consecutive days, and the rats were killed on the fifth day and autopsied. The ulcerogenic effect was evaluated on the following scale:
(1) each hemorrhage point >1 mm was evaluated as 1 lesion
(2) the hemorrhage points <1 were counted as follows:
(b) from 1 to 19 2 lesions
(c) from 1 to 29 3 lesions
(2) gastric mucosa irritation
(3) hemorrhage points <1 mm
(4) hemorrhage points from 1 to 3 mm
(5) hemorrhage points >3 mm
This scale was used to calculate the following index of gastric damage: [formula]

in vivo [5] = conditions: mouse
[6] = tested on: hyperthermia induced by dry purified beer yeast; experiment: antipyretic activity, beer yeast-induced hyperthermia; type: in vivo, Wistar strain male albino rats
Description: as §1
This effect was evaluated by inducing hyperthermia in Wistar strain male albino rats with an average weight of 250±10 g, injecting them intraperitoneally with a 10% suspension of dry purified beer yeast (Carlo Erba) in a volume of 10 ml/Kg of body weight, according to the method of S. Wong et al. (J. Pharmac. Exp. Ther., 185 (1), 127 (1973)).

mouse = conditions: in vivo
healthy animals = conditions: background statement, prior ester; cited from earlier work
carragenin-induced edema [7] = conditions: background statement, prior ester; cited from earlier work

SMILES: Cc1ccc(C(=O)c2ccc(CC(=O)NCC(=O)Nc3cccc(Cl)c3)n2C)cc1 [Compound 1b]
- Oedema inhibition % (carragenin-induced edema [1]; i.p., 10 mg/kg, 3 h): 30.1%
- Oedema inhibition % (carragenin-induced edema [1]; i.p., 10 mg/kg, 6 h): 29.0%
- Oedema inhibition % (carragenin-induced edema [1]; i.p., 10 mg/kg, 24 h): 0.0%
- Oedema inhibition % (carragenin-induced edema [1]; i.p., 50 mg/kg, 3 h): 49.2%
- Oedema inhibition % (carragenin-induced edema [1]; i.p., 50 mg/kg, 6 h): 43.5%
- Oedema inhibition % (carragenin-induced edema [1]; i.p., 50 mg/kg, 24 h): 2.3%
- Oedema inhibition % (carragenin-induced edema [1]; i.p., 100 mg/kg, 3 h): 65.4%
- Oedema inhibition % (carragenin-induced edema [1]; i.p., 100 mg/kg, 6 h): 62.0%
- Oedema inhibition % (carragenin-induced edema [1]; i.p., 100 mg/kg, 24 h): 16.4%
- Oedema inhibition % (carragenin-induced edema [1]; os, 10 mg/kg, 3 h): 29.8%
- Oedema inhibition % (carragenin-induced edema [1]; os, 10 mg/kg, 6 h): 22.3%
- Oedema inhibition % (carragenin-induced edema [1]; os, 10 mg/kg, 24 h): 0.0%
- Oedema inhibition % (carragenin-induced edema [1]; os, 50 mg/kg, 3 h): 47.3%
- Oedema inhibition % (carragenin-induced edema [1]; os, 50 mg/kg, 6 h): 44.1%
- Oedema inhibition % (carragenin-induced edema [1]; os, 50 mg/kg, 24 h): 0.0%
- Oedema inhibition % (carragenin-induced edema [1]; os, 100 mg/kg, 3 h): 61.9%
- Oedema inhibition % (carragenin-induced edema [1]; os, 100 mg/kg, 6 h): 59.8%
- Oedema inhibition % (carragenin-induced edema [1]; os, 100 mg/kg, 24 h): 15.3%
- inhibition at 1 µg/mL ([2]; 1 γ/ml): 25%
- inhibition at 5 µg/mL ([2]; 5 γ/ml): 100%
- inhibition at 10 µg/mL ([2]; 10 γ/ml): 100%
- Protection % ([3]; i.p., 5 mg/kg): 18.7%
- Protection % ([3]; i.p., 10 mg/kg): 42.3%
- Protection % ([3]; i.p., 20 mg/kg): 69.5%
- Protection % ([3]; os, 5 mg/kg): 16.1%
- Protection % ([3]; os, 10 mg/kg): 36.2%
- Protection % ([3]; os, 20 mg/kg): 69.1%
- LD50 (in vivo [4]; ip): 1200 mg/kg
- LD50 (in vivo [4]; po): > 1420 mg/kg
- Index gastric damage (gastric mucosa; 50 mg/kg): 8
- Index gastric damage, signed figure (untitled; difference from Carrier index 8) (gastric mucosa; 50 mg/kg): +0
- Mean number lesions (gastric mucosa; 50 mg/kg): 1
- Incidence % / 10 (gastric mucosa; 50 mg/kg): 5 %/10
- Mean number severity (gastric mucosa; 50 mg/kg): 2
- Index gastric damage (gastric mucosa; 100 mg/kg): 11
- Index gastric damage, signed figure (untitled; difference from Carrier index 8) (gastric mucosa; 100 mg/kg): +3
- Mean number lesions (gastric mucosa; 100 mg/kg): 2
- Incidence % / 10 (gastric mucosa; 100 mg/kg): 7 %/10
- Mean number severity (gastric mucosa; 100 mg/kg): 2
- Index gastric damage (gastric mucosa; 200 mg/kg): 14
- Index gastric damage, signed figure (untitled; difference from Carrier index 8) (gastric mucosa; 200 mg/kg): +6
- Mean number lesions (gastric mucosa; 200 mg/kg): 3
- Incidence % / 10 (gastric mucosa; 200 mg/kg): 8 %/10
- Mean number severity (gastric mucosa; 200 mg/kg): 3
- LD50 (in vivo [5]; ip): 1370 mg/kg
- LD50 (in vivo [5]; po): > 1500 mg/kg
- Temperature decrease % ([6]; i.p., 50 mg/kg, 1 h): 16.0%
- Temperature decrease % ([6]; i.p., 50 mg/kg, 2 h): 19.3%
- Temperature decrease % ([6]; i.p., 50 mg/kg, 3 h): 33.0%
- Temperature decrease % ([6]; i.p., 75 mg/kg, 1 h): 26.0%
- Temperature decrease % ([6]; i.p., 75 mg/kg, 2 h): 36.1%
- Temperature decrease % ([6]; i.p., 75 mg/kg, 3 h): 40.0%
- Temperature decrease % ([6]; i.p., 100 mg/kg, 1 h): 39.1%
- Temperature decrease % ([6]; i.p., 100 mg/kg, 2 h): 40.0%
- Temperature decrease % ([6]; i.p., 100 mg/kg, 3 h): 30.5%
- Temperature decrease % ([6]; os, 50 mg/kg, 1 h): 19.0%
- Temperature decrease % ([6]; os, 50 mg/kg, 6 h): 19.5%
- Temperature decrease % ([6]; os, 50 mg/kg, 24 h): 29.8%
- Temperature decrease % ([6]; os, 75 mg/kg, 1 h): 20.0%
- Temperature decrease % ([6]; os, 75 mg/kg, 6 h): 30.0%
- Temperature decrease % ([6]; os, 75 mg/kg, 24 h): 40.1%
- Temperature decrease % ([6]; os, 100 mg/kg, 1 h): 30.0%
- Temperature decrease % ([6]; os, 100 mg/kg, 6 h): 33.1%
- Temperature decrease % ([6]; os, 100 mg/kg, 24 h): 31.2%

SMILES: COc1ccc(OC)c(NC(=O)CNC(=O)Cc2ccc(C(=O)c3ccc(C)cc3)n2C)c1 [Compound 1g]
- Oedema inhibition % (carragenin-induced edema [1]; i.p., 10 mg/kg, 3 h): 35.6%
- Oedema inhibition % (carragenin-induced edema [1]; i.p., 10 mg/kg, 6 h): 37.0%
- Oedema inhibition % (carragenin-induced edema [1]; i.p., 10 mg/kg, 24 h): 0.0%
- Oedema inhibition % (carragenin-induced edema [1]; i.p., 50 mg/kg, 3 h): 50.1%
- Oedema inhibition % (carragenin-induced edema [1]; i.p., 50 mg/kg, 6 h): 50.0%
- Oedema inhibition % (carragenin-induced edema [1]; i.p., 50 mg/kg, 24 h): 6.1%
- Oedema inhibition % (carragenin-induced edema [1]; i.p., 100 mg/kg, 3 h): 71.0%
- Oedema inhibition % (carragenin-induced edema [1]; i.p., 100 mg/kg, 6 h): 71.5%
- Oedema inhibition % (carragenin-induced edema [1]; i.p., 100 mg/kg, 24 h): 22.9%
- Oedema inhibition % (carragenin-induced edema [1]; os, 10 mg/kg, 3 h): 30.4%
- Oedema inhibition % (carragenin-induced edema [1]; os, 10 mg/kg, 6 h): 37.9%
- Oedema inhibition % (carragenin-induced edema [1]; os, 10 mg/kg, 24 h): 1.2%
- Oedema inhibition % (carragenin-induced edema [1]; os, 50 mg/kg, 3 h): 51.4%
- Oedema inhibition % (carragenin-induced edema [1]; os, 50 mg/kg, 6 h): 49.0%
- Oedema inhibition % (carragenin-induced edema [1]; os, 50 mg/kg, 24 h): 7.9%
- Oedema inhibition % (carragenin-induced edema [1]; os, 100 mg/kg, 3 h): 72.3%
- Oedema inhibition % (carragenin-induced edema [1]; os, 100 mg/kg, 6 h): 70.0%
- Oedema inhibition % (carragenin-induced edema [1]; os, 100 mg/kg, 24 h): 25.1%
- Protection % ([3]; i.p., 5 mg/kg): 23.0%
- Protection % ([3]; i.p., 10 mg/kg): 56.9%
- Protection % ([3]; i.p., 20 mg/kg): 74.2%
- Protection % ([3]; os, 5 mg/kg): 20.1%
- Protection % ([3]; os, 10 mg/kg): 50.3%
- Protection % ([3]; os, 20 mg/kg): 76.0%
- Index gastric damage (gastric mucosa; 50 mg/kg): 8
- Index gastric damage, signed figure (untitled; difference from Carrier index 8) (gastric mucosa; 50 mg/kg): +0
- Mean number lesions (gastric mucosa; 50 mg/kg): 1
- Incidence % / 10 (gastric mucosa; 50 mg/kg): 6 %/10
- Mean number severity (gastric mucosa; 50 mg/kg): 1
- Index gastric damage (gastric mucosa; 100 mg/kg): 11
- Index gastric damage, signed figure (untitled; difference from Carrier index 8) (gastric mucosa; 100 mg/kg): +3
- Mean number lesions (gastric mucosa; 100 mg/kg): 2
- Incidence % / 10 (gastric mucosa; 100 mg/kg): 7 %/10
- Mean number severity (gastric mucosa; 100 mg/kg): 2
- Index gastric damage (gastric mucosa; 200 mg/kg): 14
- Index gastric damage, signed figure (untitled; difference from Carrier index 8) (gastric mucosa; 200 mg/kg): +6
- Mean number lesions (gastric mucosa; 200 mg/kg): 3
- Incidence % / 10 (gastric mucosa; 200 mg/kg): 9 %/10
- Mean number severity (gastric mucosa; 200 mg/kg): 2
- DL50 (LD50) (mouse; ip): 1200 mg/kg
- DL50 (LD50) (mouse; po): 1470 mg/kg
- LD50 (in vivo [5]; ip): 1430 mg/kg
- LD50 (in vivo [5]; po): > 1500 mg/kg
- Temperature decrease % ([6]; i.p., 50 mg/kg, 1 h): 26.0%
- Temperature decrease % ([6]; i.p., 50 mg/kg, 2 h): 27.0%
- Temperature decrease % ([6]; i.p., 50 mg/kg, 3 h): 26.0%
- Temperature decrease % ([6]; i.p., 75 mg/kg, 1 h): 32.1%
- Temperature decrease % ([6]; i.p., 75 mg/kg, 2 h): 34.5%
- Temperature decrease % ([6]; i.p., 75 mg/kg, 3 h): 40.0%
- Temperature decrease % ([6]; i.p., 100 mg/kg, 1 h): 39.1%
- Temperature decrease % ([6]; i.p., 100 mg/kg, 2 h): 46.0%
- Temperature decrease % ([6]; i.p., 100 mg/kg, 3 h): 41.0%
- Temperature decrease % ([6]; os, 50 mg/kg, 1 h): 17.1%
- Temperature decrease % ([6]; os, 50 mg/kg, 6 h): 27.1%
- Temperature decrease % ([6]; os, 50 mg/kg, 24 h): 29.1%
- Temperature decrease % ([6]; os, 75 mg/kg, 1 h): 19.6%
- Temperature decrease % ([6]; os, 75 mg/kg, 6 h): 30.1%
- Temperature decrease % ([6]; os, 75 mg/kg, 24 h): 43.1%
- Temperature decrease % ([6]; os, 100 mg/kg, 1 h): 23.1%
- Temperature decrease % ([6]; os, 100 mg/kg, 6 h): 33.0%
- Temperature decrease % ([6]; os, 100 mg/kg, 24 h): 42.1%

SMILES: COc1ccccc1OC(=O)CNC(=O)Cc1ccc(C(=O)c2ccc(C)cc2)n1C [Compound 4, 1-methyl-5-p-methylbenzoylpyrrole-2-acetamidoacetate of o-methoxyphenol]
- toxicity versus Tolmetin (in words) (healthy animals): lower toxicity
- antinflammatory, analgesic, antipyretic, antisecretive and cough suppressing activity versus Tolmetin (in words) (carragenin-induced edema [7]): greater than that of Tolmetin
- duration of action versus Tolmetin (in words) (carragenin-induced edema [7]): longer lasting action
